Source: US5863913A, “Aromatic compound and pharmaceutical composition” (Kureha Chemical Industry Co., Ltd., priority 1996, dated 1999)

Key:
[1] = tested on: kidney disease model rats; test: Action to lower blood pressure in kidney disease model rats (tail cuff); type: in vivo, Sprague-Dawley female rats; details: systolic, average of 8 rats, 20 mg/kg with drinking water, two days after administration; control 210
Protocol: (§1) The compounds of the present invention and the reference substance were administered with drinking water to kidney disease model rats, and the action of lowering the blood pressure was observed. The kidney disease model rats were prepared by a ligature of branches of renal artery in accordance with a conventional method. Namely, the left hilum renalis of Sprague-Dawley female rats was exposed under anesthesia, and one of four secondary branches of the renal artery was left unligated, while the remaining three branches were ligated, respectively. After a week, the hilum renalis (artery, vein, and ureter) of the right kidney were further ligated to thereby prepare rats whose renal function was lowered to approximately 1/8 of the normal function. Each group consisted of eight rats. The drugs to be tested (20 mg/kg) were administered to each administering group, and only water was administered to a control group. Two days after the administration, the systolic blood pressure was measured by the tail cuff method using a blood pressure measuring apparatus (UR5000; Ueda).

[2] = tested on: ICR female mice; test: Acute toxicity, single oral dose in mice; details: mouse, in vivo
Protocol: The aromatic compounds of the formula (I) according to the present invention were orally administered to mice at the dose of 500 mg/kg, but no fatalities were observed over a period of one week.
Five-week-old ICR female mice (5 mice per group) were bred for acclimation for a week. Then, the compounds of the present invention were dissolved in water, and orally administered to the mice in a single dosage (500 mg/kg).

[3] = tested on: kidney disease model rats; test: Renal function indicatory value in kidney disease model rats; type: in vivo, Sprague-Dawley female rats; details: 20 mg/kg/day with drinking water, six weeks
Protocol: as §1, with “The” for “The compounds of the present invention and the reference substance were administered with drinking water to kidney disease model rats, and the action of lowering the blood pressure was observed. The”
The rats in each group were allowed to freely take up food. […] To the rats in the control group, only water was administered every day. After six weeks, 0.2 ml of blood was collected from the carotid artery of the rats under anesthesia, and centrifuged to obtain serum. Using 25 μl of the serum, the serum creatinine (Scr) was measured by a creatinine analytical instrument (Beckman). Using 10 μl of the serum, the blood urea nitrogen (BUN) was measured by a BUN analytical instrument (Beckman). The creatinine clearance was evaluated as follows:
After the serum creatinine measurement, rats were placed in urinary metabolic cages for 24 hours to collect urine. A urinary creatine concentration (Ucr) was measured by a creatinine analytical instrument, and a total volume of urination (Uvol) was also measured. The creatinine clearance (CCr) was calculated by the following formula: [formula]

[4] = biological target: T1, angiotensin II receptor subtype 1 (AT1) (Oryctolagus cuniculus, UniProt P34976); test: Binding to receptors: angiotensin II receptor subtype 1 (AT1); design: species or system rabbits (adrenal glands); details: rabbit adrenal glands, tracer 3H-angiotensin II
T1 construct: receptor : from adrenal glands in rabbits; from tissue; host or cells: rabbit adrenal glands
T1 sequence (P34976 1-359): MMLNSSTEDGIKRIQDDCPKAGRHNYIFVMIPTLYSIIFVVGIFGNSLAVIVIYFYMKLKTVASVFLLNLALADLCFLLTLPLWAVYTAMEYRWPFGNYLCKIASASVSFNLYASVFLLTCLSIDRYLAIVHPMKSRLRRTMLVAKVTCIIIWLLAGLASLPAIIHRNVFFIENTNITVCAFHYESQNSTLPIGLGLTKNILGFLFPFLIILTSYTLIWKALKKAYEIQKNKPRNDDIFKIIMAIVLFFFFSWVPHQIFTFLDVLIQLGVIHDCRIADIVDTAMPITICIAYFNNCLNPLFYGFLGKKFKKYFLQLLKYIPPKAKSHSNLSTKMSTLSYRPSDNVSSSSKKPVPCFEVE
Protocol: In this Example, the affinity to the angiotensin II receptor subtype 1 or subtype 2 was evaluated by a binding assay in accordance with the method described in Biochem. Pharmacol., 33, 4057-4062 (1984).
Specifically, the measurement of the total binding in the presence of each drug was performed as follows:
A mixture (final volume=0.25 ml) of a drug in a given concentration (the drug was dissolved in DMSO, and diluted to a double volume with a buffer attached to a drug discovery system to prepare a sample for the assay; 0.025 ml), a tracer (0.025 ml), and receptors (0.2 ml) was incubated [in the case of the angiotensin II receptor subtype 1 (AT1), at room temperature for 3 hours, and in the case of the subtype 2 (AT2), at 37° C. for 1 hour]. Then, the reaction mixture was filtered with suction (GF/C filter was used in AT1, and GF/B filter was used in AT2). The filter papers after filtration with suction (the tracer bound to the receptors) were counted by a γ-well counter (ARC-500, Aloka). The non-specific bindings were measured by repeating the above method, except that a large excess amount of a displacer was added. The specific binding of the drug in the given concentration was calculated by subtracting the non-specific binding from the total binding, respectively.
receptor : from adrenal glands in rabbits
tracer : ^3 Hangiotensin II

[5] = Oral absorption (amount of compound in rat serum by HPLC, area under curve); type: in vivo, Sprague-Dawley female rats; details: single dosage 160 mg/kg in water, 0.5 to 24 hours, average of 3 rats
Protocol: Twelve-week-old Sprague-Dawley female rats (3 rats per group) were bred for acclimation for a week. Then, the compounds of the present invention and a reference substrate were dissolved in water, and orally administered to the rats in a single dosage (160 mg/kg). After 0.5 hour, 1 hour, 2 hours, 4 hours, 6 hours, 8 hours, and 24 hours, the amounts of each compound (ng) per 1 ml of serum were measured using HPLC. Curves were obtained from the relation between an elapsed time after administration and the amount of the compound in serum at each elapsed time, respectively, and an average of the areas under the curves was calculated.
As a reference substance, Compound No. 184 disclosed in Japanese Unexamined Patent Publication (Kokai) No. 8-48651 was used. Compound No. 184 corresponds to the compound of the formula (I) wherein R^1 =nBu, A=N, Z=C, R^2 =CO, R^3 =NC4 H8 O, R^4 =H, R^5 =Me, and R^6 =Me.

[6] = tested on: kidney disease model rats; test: Survival time of kidney diseased animals; type: in vivo, Sprague-Dawley female rats; details: 20 mg/kg/day with drinking water, observation period eight weeks (upper limit); control 5.0
Protocol: as §1
The kidney disease model rats were prepared as in Example 54. Twenty-two groups (8 rats per group) were prepared in a manner such that there was no major difference between the groups in the serum creatinine value and the blood urea nitrogen value indicating renal function. The rats in each group were allowed to freely take up food. […] To the rats in the control group, only water was administered every day. If kidney diseases are aggravated, the rat will die of uremia. Thus, the survival time was observed as a comprehensive indication of the improvement of the effect on the kidney diseases. The observation period was eight weeks. Thus if all rats survived, the average survival time is eight weeks, and is an upper limit.

CCCCC(=O)N(Cc1ccc(C(=O)O)cc1)c1cc(C(=O)N2CCN(CCC)CC2)ccc1N(C)C [Compound No. 11, 4-dimethylamino-3-N-[[(4-carboxyphenyl)methyl]valeramido]benzoic acid 4'-n-propylpiperazide]
Blood Pressure [1]: 204 mmHg
Number of deaths/number of survivals [2]: 0/5
Creatinine clearance ([3]; 24 hours urine, control 0.22): 0.42 mL/min
Creatinine ([3]; serum, control 2.0): 1.2 mg/dL
Blood urea nitrogen ([3]; serum, control 100): 62 mg/dL
inhibition at 100 µM [4]: 0%
AUC at 24 h [5]: 76000 ng·h/mL
Average survival time [6]: 7.3 weeks
